Laboratory results taken from patent US11046700B2, “Substituted imidazo[1,2-a]pyrazines, pyrazolo[1,5-c]pyrimidines, pyrazolo[1,5-a]pyridines, and purines for the treatment of schistosomiasis” (Merck Patent GmbH, priority 2017, dated 2021).

Columns and labels:
S. mansoni adult worms [1] = assay: In vitro assay, S. mansoni adult worms; type: cell-based; settings: Schistosoma mansoni; S. mansoni adult worms, in vitro; read-out: (a) Adult
[2] = system: S. mansoni juvenile worms; assay: In vitro assay, S. mansoni juvenile worms; type: cell-based; settings: Schistosoma mansoni; S. mansoni juvenile worms, in vitro; read-out: (b) Juvenile
[3] = system: S. haemotobium adult worms; assay: In vitro assay, S. haemotobium adult worms; type: cell-based; settings: read-out: (c) S. haemotobium
Experimental: (§1) The routine biological assays using adult or juvenile worms and cytotoxicity assays using MRC-5 cells have been disclosed previously in Mansour, N. R., et al. (2016). “High Throughput Screening Identifies Novel Lead Compounds with Activity against Larval, Juvenile and Schistosoma mansoni PLoS Negl Trap Dis 10(4): e0004659. Cytotoxicity assays using the HepG2 cell line were carried out as described in Molecular Diversity (2015) 19, 251-261.
(c) S. haemotobium adult worms

MRC-5 cells = assay: Cytotoxicity against human MRC-5 cell line; type: cell-based
Experimental: as §1
(d) Cytotoxicity against human MRC-5 cell line

HepG2 cell line = assay: Cytotoxicity against human HepG2 cell lines; type: cell-based
S. mansoni adult worms [4] = assay: Mouse infection model, adult worms, oral treatment day 42 post infection, worm recovery; type: in vivo, Schistosoma mansoni; settings: mice
Experimental: (§2) Methods for the subcutaneous infection of mice and subsequent worm recovery were as described in Mansour et al (2016) except that infection was with 150 cercariae and the perfusion medium was citrate saline (0.9% sodium chloride, 1.5% tri-sodium citrate). Perfusion was carried out 8 days (adult infections) or 15 days (juvenile infections) after treatment. Perfuseate was collected into 30 mL universal tubes. RBC (Red Blood Cells) were removed by allowing the perfuseate to settle for 10 min, removal of most of the supernatant and washing once as above with 10 mL perfusion medium. A drop of dilute aqueous saponin solution was added to lyse any remaining RBC and the worm suspension poured into a grid-marked small petri dish. The tube was rinsed out into the petri dish and examined for any remaining worms. Worms were counted using a dissecting microscope. The mouse livers removed after perfusion were squashed between two thick glass plates and examined visually and any remaining worms added to those counted as above.
(§3) For testing efficacy against the juvenile worms, treatment was on day 25 post infection and for testing against the adult worms on day 42 post infection. Drugs were suspended in 7% Tween-80/3% Ethanol/double distilled water and drug dispersal was facilitated by vortexing and using a sonicating water bath (Formulation F1). Alternatively, drugs were suspended in 10% DMSO, 90% double distilled water containing 50 mM Na2HPO4 with 0.5% Tween-80 by first dissolving or suspending the drug in DMSO then adding the DMSO solution/suspension to the aqueous solution (Formulation F2). In a further set of conditions, drugs were first dissolved in DMSO, then diluted with corn oil to give a 5% DMSO+drug solution/suspension (Formulation F3)
(§4) The drug solution/suspensions were given by oral gavage at the rate of 10 ml/kg. Positive controls (artemether for juvenile worms and praziquantel for adult worms) were used in each experiment.

[5] = system: S. mansoni juvenile worms; assay: Mouse infection model, juvenile worms, oral treatment day 25 post infection, worm recovery; type: in vivo, Schistosoma mansoni; settings: mice
Experimental: as §2, §3, §4

[6] = oral 200 mg/kg, Formulation F1, negative control 38.8 ± 5.4
[7] = oral 6.25 mg/kg, Formulation F1, negative control 33.8 ± 4.1
[8] = oral 12.5 mg/kg, Formulation F1, negative control 33.8 ± 4.1
[9] = oral 6.25 mg/kg, Formulation F3, negative control 32.6 ± 10.6
[10] = oral 25 mg/kg, Formulation F1, negative control 33.2 ± 9.09

| Compound | IC50 (S. mansoni adult worms [1]) | IC50 [2] | IC50 [3] | (d) Cytotox MRC-5 (MRC-5 cells) | (e) Cytotox HepG2 (HepG2 cell line) | other results |
| --- | --- | --- | --- | --- | --- | --- |
| COc1ccc(-c2c(C(C)C)nc3cnc(-c4cccc(C(F)(F)F)c4)cn23)cc1O [Example 1, 2-methoxy-5-[2-(propan-2-yl)-6-[3-(trifluoromethyl)phenyl]imidazo[1,2-a]pyrazin-3-yl]phenol] | 58 nM | 13 nM | < 195 nM | 21.8 µM | >11.1 µM | – |
| CCc1nc2cnc(-c3cccc(C(F)(F)F)c3)cn2c1-c1ccc(O)cc1F [Example 8, 3-fluoro-4-[2-ethyl-6-[3-(trifluoromethyl)phenyl]imidazo[1,2-a]pyrazin-3-yl]phenol] | 100 nM | 86 nM | < 1560 nM | 17.3 µM | 18.7 µM | – |
| CC(C)c1nc2cnc(-c3cccc(C(F)(F)F)c3)cn2c1-c1ccc(O)cc1F [Example 9, 3-fluoro-4-[2-(propan-2-yl)-6-[3-(trifluoromethyl)phenyl]imidazo[1,2-a]pyrazin-3-yl]phenol] | 76 nM | 79 nM | – | 13.7 µM | 9 µM | – |
| CC(C)c1nc2cnc(-c3ccc(F)c(C(F)(F)F)c3)cn2c1-c1c(F)cc(O)cc1F [Example 17, 3,5-difluoro-4-[2-(propan-2-yl)-6-[4-fluoro-3-(trifluoromethyl)phenyl]imidazo[1,2-a]pyrazin-3-yl]phenol] | 44 nM | 26 nM | 23 nM | – | 7.1 µM | Mean worm recovery (S. mansoni adult worms [4]; [6]): 0.3 ± 0.8; Percent worm reduction (S. mansoni adult worms [4]; [6]): 99%; Mean worm recovery ([5]; oral 50 mg/kg, Formulation F1, negative control 33.0 ± 7.2): 20.6 ± 8.5; Mean worm recovery ([5]; oral 200 mg/kg, Formulation F1, negative control 33.0 ± 7.2): 5.2 ± 3.1 |
| Fc1ccc(-c2cn3c(-c4ccc5[nH]ncc5c4F)c(C(F)(F)F)nc3cn2)cc1C(F)(F)C(F)(F)F [Example 63, 3-(4-Fluoro-1H-indazol-5-yl)-6-(4-fluoro-3-pentafluoroethyl-phenyl)-2-trifluoromethyl-imidazo[1,2-a]pyrazine] | 11 nM | 10 nM | < 6 nM | – | 11.7 µM | Mean worm recovery [5, 9]: 0.6 ± 1.0; Percent worm reduction [5, 9]: 98% |

Further molecules by falling IC50 [2], results first:

| IC50 (S. mansoni adult worms [1]) | IC50 [2] | IC50 [3] | Compound | (d) Cytotox MRC-5 (MRC-5 cells) | (e) Cytotox HepG2 (HepG2 cell line) | other results |
| --- | --- | --- | --- | --- | --- | --- |
| < 780 nM | 530 nM | – | Cc1nc2cnc(-c3ccc(F)c(C(F)(F)F)c3)cn2c1-c1ccc(O)cc1F [Example 10, 3-fluoro-4-[2-methyl-6-[4-fluoro-3-(trifluoromethyl)phenyl]imidazo[1,2-a]pyrazin-3-yl]phenol] | 14.4 µM | >11.1 µM | – |
| 430 nM | 530 nM | 150 nM | COc1cc(-c2c(C(C)C)nc3cnc(-c4cccc(C(F)(F)F)c4)cn23)cc2cn[nH]c12 [Example 22, 7-methoxy-5-{2-(propan-2-yl)-6-[3-trifluoromethylphenyl]imidazo[1,2-a]pyrazin-3-yl}-1H-indazole] | – | – | – |
| 290 nM | 480 nM | – | Cc1nc2cnc(-c3cccc(C(F)(F)F)c3)cn2c1-c1ccc(O)cc1F [Example 6, 3-fluoro-4-[2-methyl-6-[3-(trifluoromethyl)phenyl]imidazo[1,2-a]pyrazin-3-yl]phenol] | 15.8 µM | – | – |
| 120 nM | 220 nM | 40 nM | Cc1nc2cnc(-c3ccc(F)c(C(F)(F)F)c3)cn2c1-c1c(F)cc(O)cc1F [Example 16, 3,5-difluoro-4-[2-methyl-6-[4-fluoro-3-(trifluoromethyl)phenyl]imidazo[1,2-a]pyrazin-3-yl]phenol] | – | 7.6 µM | – |
| 90 nM | 82 nM | – | CCc1nc2cnc(-c3cccc(C(F)(F)F)c3)cn2c1-c1ccc(OC)c(O)c1 [Example 7, 2-methoxy-5-[2-ethyl-6-[3-(trifluoromethyl)phenyl]imidazo[1,2-a]pyrazin-3-yl]phenol] | >50 µM | >30 µM | – |
| – | 60 nM | – | Fc1ccc(-c2cn3c(-c4ccc5[nH]ncc5c4F)c(C(F)(F)F)nc3cn2)cc1C(F)(F)F [Example 50, 3-(4-Fluoro-1H-indazol-5-yl)-6-(4-fluoro-3-trifluoromethylphenyl)-2-trifluoromethyl-imidazo[1,2-a]pyrazine] | – | – | Mean worm recovery (S. mansoni adult worms [4]; [7]): 7.4 ± 8.1; Percent worm reduction (S. mansoni adult worms [4]; [7]): 78%; Mean worm recovery (S. mansoni adult worms [4]; [8]): 0.2; Percent worm reduction (S. mansoni adult worms [4]; [8]): 99%; Mean worm recovery [5, 9]: 17.6 ± 12.0; Percent worm reduction [5, 9]: 46%; Mean worm recovery [5, 10]: 0.8 ± 0.84; Percent worm reduction [5, 10]: 98% |
